Laboratory results published in PMC12508156, “Non-canonical dihydrolipoyl transacetylase promotes chemotherapy resistance via mitochondrial tetrahydrofolate signaling” (Nature Communications, 2025).
Where “and” joins values, the source holds several entries; their conditions need not be identical. Identical values can stand only once.

Assays:
MT-CO2 = experiment: MT-CO1, MT-CO2, COXIV expression (immunoblot, quantitative RT-PCR); format: cell-based, human
Method: Apoptosis (top) and cell viability (bottom) were determined. 10-formyl-THF rescues cisplatin-resistant cell growth (c) and MT-CO2 expression (d) in cells lacking K44 MTHFD2 acetylation. Cisplatin-treated cells expressing K44R MTHFD2 were subjected to 10 μM 10-formyl-THF for 24 h followed by annexin V staining, cell viability assay, and assessment of MT-CO1, MT-CO2, and COXIV levels by immunoblotting and quantitative RT-PCR. Cells expressing the acetyl-mimetic mutant form of MTHFD2 K44Q were included for comparison. Effect of MT-CO2 overexpression on cisplatin-resistant cell growth in cells lacking K44 MTHFD2 acetylation (e) or DLAT (f) by K44R MTHFD2 expression or DLAT knockdown, respectively. Data are mean ± SD from 4 independent biological replicates for (d) and 3 for (a–c, e, f). P values were determined by one-way ANOVA. Source data are provided as a Source Data file.
Supplementary Fig. 8: POLRMT is required for 10-formyl-THF-induced MT-CO2 expression in cisplatin-resistant cells. […]
absence of 10-formyl-THF (10 µM) for 24 h. The levels of MT-CO2, mitochondrial transcription factors, and myc-MTHFD2 were assessed by immunoblotting. […] MT-CO2 mRNA and protein levels were assessed by quantitative RT-PCR and immunoblotting, respectively. […] P values were determined by one-way ANOVA. […]

[1] = tested on: cisplatin-resistant cancer cells; experiment: Drug sensitivity of cancer cells (apoptosis, cell viability); format: cell-based, human; settings: for sensitization of cancer cells to cisplatin treatment: 10 μM inhibitor and sublethal doses of cisplatin, 48 h (Fig. 4e, f); for sensitization of cancer cells to the agent by impairment of DLAT: KB-3-1cisR and A549cisR, DLAT knockdown vs control, sublethal doses 48 h: 50 μM carboplatin, 10 nM gemcitabine, 10 μM etoposide, 0.5 μM pemetrexed, 3 nM paclitaxel, 1 μM erlotinib
Method: Cell viability was determined using the CellTiter-Glo Luminescent Cell Viability Assay. […] Subsequently, the cells were cultured in complete medium for an additional 10 days, and the resulting colonies were visualized by staining with crystal violet and quantified using ImageJ software. For cell cycle analysis, cells fixed with 70% ethanol were stained with RNase A (100 µg/mL) and propidium iodide (50 μg/ml) for 30 min at 37 °C, and DNA content distribution was measured using flow cytometry (BD Symphony A3) and analyzed with FlowJo software (v10.9). Apoptotic cell death was assessed via FITC-conjugated annexin V and propidium iodide staining.

A549cisR cells = experiment: Apoptotic cell death (annexin V/PI staining); format: cell-based, human; settings: A549cisR; 5 mM DCA and/or sublethal cisplatin, 48 h; n=1-3: biological replicates
KB-3-1cisR cells = experiment: Apoptotic cell death (annexin V/PI staining); format: cell-based, human; settings: KB-3-1cisR; 5 mM DCA and/or sublethal cisplatin, 48 h; n=1-3: biological replicates
MTHFD1 = settings: concurrently inhibiting the ubiquitous isozyme MTHFD1; cited from earlier work
Text: Inhibitors targeting components of PDC include a non-selective PDK inhibitor, dichloroacetate (DCA)[39]. However, to the best of our knowledge, no specific inhibitor is available to target non-classical DLAT signaling that is independent of PDC. LY345899 and DS18561882 have been reported to be MTHFD2 inhibitors, and are a folate analog and a tricyclic coumarin-based compound that competitively binds to the substrate binding site[40]–[42]. However, these inhibitors are unselective, concurrently inhibiting the ubiquitous isozyme MTHFD1 and thus posing a potential safety risk; therefore, further ...

Bcl-xL = experiment: Immunoblotting of apoptosis-associated proteins; format: cell-based, human; settings: NAC in cisplatin-treated DLAT knockdown cells (Fig. 3h)
Method: Cellular ROS (upper), apoptosis (middle), and cell viability (lower) were measured. […] Mito-TEMPO (10 μM) or flag-tagged catalase was introduced in cisplatin-treated cells. Mitochondrial ROS and cytoplasmic hydrogen peroxide were measured by mitoSOX staining and luminescence detection, respectively. g Immunoblotting of apoptosis-associated proteins. […] Fold changes were obtained by comparing the DLAT knockdown group to the control group. […] P values were determined by two-tailed Student’s t-test (a, i) and one-way ANOVA for the rest. Source data are provided as a Source Data file.

[2] = tested on: A549cisR and KB-3-1cisR cells; experiment: Senescence (p21) and autophagy (LC3-I/II, p62) markers, cell cycle; format: cell-based, human; settings: 0.5 mM NAC, 24 h, DLAT shRNA and sublethal cisplatin
Method: 1cisR cells were transduced with DLAT-targeting shRNA and treated with sublethal doses of […]
antioxidant N-acetylcysteine (NAC). (a) Western blot analysis of p21 waf1/cip1 expression as a marker of cellular senescence. (b) Western blot analysis of LC3-I/II and p62 as markers of autophagy. (c) Cell cycle distribution was assessed by flow cytometry following propidium iodide staining. (d) Intracellular ROS levels were measured using the H2DCFDA probe. Error bars represent SD and are from 3 independent biological replicates for (c,d). P values were determined by one-way ANOVA.
(1 picture or pasted object on this page, not shown here)

DLAT = DLAT mRNA, DLAT protein and cell viability after elesclomol; format: cell-based, human; settings: increasing doses up to 1 µM for 48 h
Method: Elesclomol was administered at increasing doses up to 1 µM for 48 h. The levels of DLAT mRNA (a), DLAT protein (b), and cell viability (c) are shown. Error bars represent the standard deviation (SD) and from 3 independent biological replicates for (a,c). P values were obtained by one-way ANOVA. 1 (1 picture or pasted object on this page, not shown here)

Compound: Nc1nc2c(c(=O)[nH]1)NC(CN(C=O)c1ccc(C(=O)N[C@@H](CCC(=O)O)C(=O)O)cc1)CN2 (stereo partly drawn) [10-formyl-THF, 10-Formyltetrahydrofolate]
- MT-CO2 expression in MTHFD2 K44R cells (MT-CO2; 10 μM 10-formyl-THF, 24 h, cisplatin-treated cells (Fig. 6d)): restored
- attenuated cell viability and elevated apoptosis induced by cisplatin and DLAT loss ([1]; supplementation at physiological concentrations, 48 h, DLAT knockdown cells under sublethal cisplatin (Fig. 6a, b)): reversed

Compound: O=C(O)C(Cl)Cl [DCA, dichloroacetate]
- Apoptotic death (A549cisR cells): 9.2 and 6.2
- Apoptotic death (KB-3-1cisR cells): 2.5 and 4.8 and 4.4
- survival of cisplatin-resistant cancer cells ([1]; 5 mM DCA and cisplatin, 48 h, A549cisR and KB-3-1cisR (Fig. 2e)): no significant effect

Compound: Cc1c(N2CCN(C)[C@@H](C)C2)ccc2c3c(c(=O)oc12)CN(C(=O)c1ccc(NS(C)(=O)=O)c(OC(F)(F)F)c1)CC3 [DS18561882]
- sensitization of cancer cells to cisplatin treatment [1]: sensitized
- selectivity versus isozyme MTHFD1 (MTHFD1): unselective

Compound: Cc1ccccc1-c1cc(=O)oc2cc(OC(C)C(=O)N(C)C)ccc12 (stereo not drawn) [IMT1]
- MT-CO2 expression induced by 10-formyl-THF (MT-CO2; IMT1 5 µM and 10-formyl-THF 10 µM, 24 h (Supplementary Fig. 8b)): mitigated

Compound: Nc1nc2c(c(=O)[nH]1)N1C(=O)N(c3ccc(C(=O)N[C@@H](CCC(=O)O)C(=O)O)cc3)CC1CN2 (stereo partly drawn) [LY345899]
- sensitization of cancer cells to cisplatin treatment [1]: sensitized
- selectivity versus isozyme MTHFD1 (MTHFD1): unselective

Compound: CC(=O)N[C@@H](CS)C(=O)O [NAC, N-acetyl-L-cysteine]
- Bcl-xL expression (Bcl-xL): partially restored
- senescence, autophagy, or cell cycle progression [2]: did not alter
- cisplatin-mediated ROS and apoptosis in DLAT knockdown cells ([1]; NAC 0.5 mM, cisplatin-treated DLAT knockdown cells (Fig. 3d)): significantly lowered

Compound: N.N.O=C([O-])C1(C(=O)[O-])CCC1.[Pt+2] [carboplatin]
- sensitization of cancer cells to the agent by impairment of DLAT [1]: sensitized

Compound: CN(NC(=O)CC(=O)NN(C)C(=S)c1ccccc1)C(=S)c1ccccc1 [elesclomol]
- DLAT levels (gene and protein) (DLAT): did not alter

Compound: C#Cc1cccc(Nc2ncnc3cc(OCCOC)c(OCCOC)cc23)c1 [erlotinib]
- sensitization of cancer cells to the agent by impairment of DLAT [1]: not

Compound: COc1cc([C@@H]2c3cc4c(cc3[C@@H](O[C@@H]3O[C@@H]5CO[C@@H](C)O[C@H]5[C@H](O)[C@H]3O)[C@H]3COC(=O)[C@H]23)OCO4)cc(OC)c1O [etoposide]
- sensitization of cancer cells to the agent by impairment of DLAT [1]: sensitized

Compound: Nc1ccn([C@@H]2O[C@H](CO)[C@@H](O)C2(F)F)c(=O)n1 [gemcitabine]
- sensitization of cancer cells to the agent by impairment of DLAT [1]: sensitized

Compound: CC1(C)CC(NC(=O)C[P+](c2ccccc2)(c2ccccc2)c2ccccc2)CC(C)(C)N1[O] [mito-TEMPO]
- elevated apoptosis and attenuated cell viability induced by DLAT loss and cisplatin ([1]; Mito-TEMPO 10 μM (Fig. 3e)): reversed

Compound: CC(=O)O[C@H]1C(=O)[C@@]2(C)[C@H]([C@H](OC(=O)c3ccccc3)[C@]3(O)C[C@H](OC(=O)[C@H](O)[C@@H](NC(=O)c4ccccc4)c4ccccc4)C(C)=C1C3(C)C)[C@]1(OC(C)=O)CO[C@@H]1C[C@@H]2O [paclitaxel]
- sensitization of cancer cells to the agent by impairment of DLAT [1]: sensitized

Compound: Nc1nc2[nH]cc(CCc3ccc(C(=O)N[C@@H](CCC(=O)O)C(=O)O)cc3)c2c(=O)[nH]1 [pemetrexed]
- sensitization of cancer cells to the agent by impairment of DLAT [1]: sensitized
